Measurements as given in PMC10065276, “Enhanced therapeutic window for antimicrobial Pept-ins by investigating their structure-activity relationship” (PLOS ONE, 2023).
Residues, ends and D or L forms follow the SMILES beside them.

What follows are compounds tested on E. coli BL21. Conditions: BL21, 17 h.
Experimental: The peptide MIC was determined via the broth microdilution assay according to the EUCAST guideline, using 96-well polystyrene flat-bottom microtiter plates (BD Biosciences). Briefly, a single colony was inoculated in 5 mL Mueller-Hinton (MH) medium and incubated, while shaking at 37°C, to the end-exponential growth phase. The bacterial culture was subsequently diluted to 0.005 McFarland (McF) (~1.5x10^6 CFU/mL) with fresh MH medium. Two-fold serial peptide-dilutions were prepared in 50 μL MH medium resulting in a concentration range of 0.75 to 100 μg/mL (at least three wells for each concentration). Afterwards, 50 μL of the freshly diluted bacterial suspension (0.005 McF) was mixed with different peptide concentrations in the 96-well plate, performed in triplicates. The plate was ultimately incubated at 37°C overnight without shaking for 17 hours. The MIC was determined as the lowest peptide concentration without visible bacterial growth.

SMILES | BL21 MIC [µg/mL]
CC(C)C[C@H](NC(=O)CNC(=O)[C@H](CCCNC(=N)N)NC(=O)[C@@H]1CCCN1C(=O)[C@H](CCCNC(=N)N)NC(=O)[C@H](CCCNC(=N)N)NC(=O)[C@@H](NC(=O)[C@H](CC(C)C)NC(=O)[C@H](C)NC(=O)[C@H](CC(C)C)NC(=O)[C@H](C)NC(=O)[C@H](CC(C)C)NC(=O)CNC(=O)[C@@H](N)CCCNC(=N)N)C(C)C)C(=O)NCC(=O)N[C@@H](CC(C)C)C(=O)N[C@@H](C)C(=O)N[C@@H](CC(C)C)C(=O)N[C@H](C(=O)N[C@@H](CCCNC(=N)N)C(=O)N[C@@H](CCCNC(=N)N)C(=O)O)C(C)C [Peptide P2_G4A] (H-RGLALALVRRPRGLGLALVRR-OH) | 6.25
CC(C)C[C@H](NC(=O)CNC(=O)[C@H](CCCNC(=N)N)NC(=O)[C@@H]1CCCN1C(=O)[C@H](CCCNC(=N)N)NC(=O)[C@H](CCCNC(=N)N)NC(=O)[C@@H](NC(=O)[C@H](CC(C)C)NC(=O)[C@H](C)NC(=O)[C@H](CC(C)C)NC(=O)CNC(=O)[C@H](CC(C)C)NC(=O)CNC(=O)[C@@H](N)CCCNC(=N)N)C(C)C)C(=O)NCC(=O)N[C@@H](CC(C)C)C(=O)N[C@@H](Cc1ccc(O)cc1)C(=O)N[C@@H](CC(C)C)C(=O)N[C@H](C(=O)N[C@@H](CCCNC(=N)N)C(=O)N[C@@H](CCCNC(=N)N)C(=O)O)C(C)C [Peptide P2_A5Y] (H-RGLGLALVRRPRGLGLYLVRR-OH) | 6.25
CC(C)C[C@H](NC(=O)CNC(=O)[C@H](CCCNC(=N)N)NC(=O)[C@H](CCCNC(=N)N)NC(=O)[C@H](C)NC(=O)[C@H](CCCNC(=N)N)NC(=O)[C@@H](NC(=O)[C@H](CC(C)C)NC(=O)[C@H](C)NC(=O)[C@H](CC(C)C)NC(=O)CNC(=O)[C@H](CC(C)C)NC(=O)CNC(=O)[C@@H](N)CCCNC(=N)N)C(C)C)C(=O)NCC(=O)N[C@@H](CC(C)C)C(=O)N[C@@H](C)C(=O)N[C@@H](CC(C)C)C(=O)N[C@H](C(=O)N[C@@H](C)C(=O)N[C@@H](CCCNC(=N)N)C(=O)O)C(C)C [Peptide P2_4R_R] (H-RGLGLALVRARRGLGLALVAR-OH) | 12.50
CC[C@H](C)[C@H](NC(=O)CNC(=O)[C@H](CC(C)C)NC(=O)[C@H](CCCNC(=N)N)NC(=O)[C@@H]1CCCN1C(=O)[C@H](CCCNC(=N)N)NC(=O)[C@H](CCCNC(=N)N)NC(=O)[C@H](CC(C)C)NC(=O)[C@H](C)NC(=O)[C@@H](NC(=O)[C@H](C)NC(=O)[C@@H](NC(=O)[C@H](C)NC(=O)[C@H](CC(C)C)NC(=O)[C@@H](N)CCCNC(=N)N)[C@@H](C)CC)C(C)C)C(=O)N[C@@H](C)C(=O)N[C@H](C(=O)N[C@@H](C)C(=O)N[C@@H](CC(C)C)C(=O)N[C@@H](CCCNC(=N)N)C(=O)N[C@@H](CCCNC(=N)N)C(=O)O)C(C)C [Peptide P33-G3A] (H-RLAIAVALRRPRLGIAVALRR-OH) | 6.25
CC[C@H](C)[C@H](NC(=O)CNC(=O)[C@H](CC(C)C)NC(=O)[C@H](CCCNC(=N)N)NC(=O)[C@@H]1CCCN1C(=O)[C@H](CCCNC(=N)N)NC(=O)[C@H](CC(C)C)NC(=O)[C@H](C)NC(=O)[C@@H](NC(=O)[C@H](C)NC(=O)[C@@H](NC(=O)CNC(=O)[C@H](CC(C)C)NC(=O)[C@@H](N)CCCNC(=N)N)[C@@H](C)CC)C(C)C)C(=O)N[C@@H](C)C(=O)N[C@H](C(=O)N[C@@H](C)C(=O)N[C@@H](CC(C)C)C(=O)N[C@@H](CCCNC(=N)N)C(=O)O)C(C)C [Peptide P33_4R_1] (H-RLGIAVALRPRLGIAVALR-OH) | 6.25
CC[C@H](C)[C@H](NC(=O)CNC(=O)[C@H](CC(C)C)NC(=O)[C@@H](N)CCCNC(=N)N)C(=O)N[C@@H](C)C(=O)N[C@H](C(=O)N[C@@H](C)C(=O)N[C@@H](C)C(=O)N[C@@H](CCCNC(=N)N)C(=O)N[C@@H](CCCNC(=N)N)C(=O)N1CCC[C@H]1C(=O)N[C@@H](CCCNC(=N)N)C(=O)N[C@@H](CC(C)C)C(=O)NCC(=O)N[C@H](C(=O)N[C@@H](C)C(=O)N[C@H](C(=O)N[C@@H](C)C(=O)N[C@@H](CC(C)C)C(=O)N[C@@H](CCCNC(=N)N)C(=O)N[C@@H](CCCNC(=N)N)C(=O)O)C(C)C)[C@@H](C)CC)C(C)C [Peptide P33-8LA] (H-RLGIAVAARRPRLGIAVALRR-OH) | 6.25
CC[C@H](C)[C@H](NC(=O)CNC(=O)[C@H](CC(C)C)NC(=O)[C@@H](N)CCCNC(=N)N)C(=O)N[C@@H](C)C(=O)N[C@H](C(=O)N[C@@H](C)C(=O)N[C@@H](CC(C)C)C(=O)N[C@@H](C)C(=O)N[C@@H](CCCNC(=N)N)C(=O)N1CCC[C@H]1C(=O)N[C@@H](CCCNC(=N)N)C(=O)N[C@@H](CC(C)C)C(=O)NCC(=O)N[C@H](C(=O)N[C@@H](C)C(=O)N[C@H](C(=O)N[C@@H](C)C(=O)N[C@@H](CC(C)C)C(=O)N[C@@H](CCCNC(=N)N)C(=O)N[C@@H](CCCNC(=N)N)C(=O)O)C(C)C)[C@@H](C)CC)C(C)C [Peptide P33-R9A] (H-RLGIAVALARPRLGIAVALRR-OH) | 6.25
CC[C@H](C)[C@H](NC(=O)CNC(=O)[C@H](CC(C)C)NC(=O)[C@@H]1CCCN1C(=O)[C@H](CCCNC(=N)N)NC(=O)[C@H](CC(C)C)NC(=O)[C@H](C)NC(=O)[C@@H](NC(=O)[C@H](C)NC(=O)[C@@H](NC(=O)CNC(=O)[C@H](CC(C)C)NC(=O)[C@@H](N)CCCNC(=N)N)[C@@H](C)CC)C(C)C)C(=O)N[C@@H](C)C(=O)N[C@H](C(=O)N[C@@H](C)C(=O)N[C@@H](CC(C)C)C(=O)N[C@@H](CCCNC(=N)N)C(=O)O)C(C)C [Peptide P33_3R_2] (H-RLGIAVALRPLGIAVALR-OH) | 25.00
CC[C@H](C)[C@H](NC(=O)[C@H](CC(C)C)NC(=O)CNC(=O)[C@H](CC(C)C)NC(=O)CNC(=O)[C@H](CCCNC(=N)N)NC(=O)[C@@H]1CCCN1C(=O)[C@H](CCCNC(=N)N)NC(=O)[C@H](CCCNC(=N)N)NC(=O)[C@@H](NC(=O)[C@H](CC(C)C)NC(=O)[C@@H](NC(=O)[C@H](CC(C)C)NC(=O)CNC(=O)[C@H](CC(C)C)NC(=O)CNC(=O)[C@@H](N)CCCNC(=N)N)[C@@H](C)CC)C(C)C)C(=O)N[C@@H](CC(C)C)C(=O)N[C@H](C(=O)N[C@@H](CCCNC(=N)N)C(=O)N[C@@H](CCCNC(=N)N)C(=O)O)C(C)C [A5I (P2)] (H-RGLGLILVRRPRGLGLILVRR-OH) | 6.25
CC[C@H](C)[C@H](NC(=O)CNC(=O)[C@H](CC(C)C)NC(=O)[C@H](CCCNC(=N)N)NC(=O)[C@@H]1CCCN1C(=O)[C@H](CCCNC(=N)N)NC(=O)[C@H](CCCNC(=N)N)NC(=O)[C@H](CC(C)C)NC(=O)[C@H](C)NC(=O)[C@@H](NC(=O)[C@H](C)NC(=O)[C@@H](NC(=O)CNC(=O)[C@H](CC(C)C)NC(=O)[C@@H](N)CCCNC(=N)N)[C@@H](C)CC)C(C)C)C(=O)N[C@@H](C)C(=O)N[C@@H](C)C(=O)N[C@@H](C)C(=O)N[C@@H](CC(C)C)C(=O)N[C@@H](CCCNC(=N)N)C(=O)N[C@@H](CCCNC(=N)N)C(=O)O [Peptide P33-V17A] (H-RLGIAVALRRPRLGIAAALRR-OH) | 6.25
CC[C@H](C)[C@H](NC(=O)CNC(=O)[C@H](CC(C)C)NC(=O)[C@H](CCCNC(=N)N)NC(=O)[C@@H]1CCCN1C(=O)[C@H](CCCNC(=N)N)NC(=O)[C@H](C)NC(=O)[C@H](CC(C)C)NC(=O)[C@H](C)NC(=O)[C@@H](NC(=O)[C@H](C)NC(=O)[C@@H](NC(=O)CNC(=O)[C@H](CC(C)C)NC(=O)[C@@H](N)CCCNC(=N)N)[C@@H](C)CC)C(C)C)C(=O)N[C@@H](C)C(=O)N[C@H](C(=O)N[C@@H](C)C(=O)N[C@@H](CC(C)C)C(=O)N[C@@H](C)C(=O)N[C@@H](CCCNC(=N)N)C(=O)O)C(C)C [Peptide P33_4R_3] (H-RLGIAVALARPRLGIAVALAR-OH) | 50.00
